Test results: paper PMC4628094, “In Vitro Assessment of Uptake and Lysosomal Sequestration of Respiratory Drugs in Alveolar Macrophage Cell Line NR8383” (Pharmaceutical Research, 2015)
Where a name gives a salt, the structure may show the parent alone. Read-outs that look alike come from different tables or passages of the source. Marks after values point to notes of the source that are not given here.

What was measured:
[1] = system: NR8383 cells; experiment: LysoTracker Red (LTR) confocal assessment of lysosomal sequestration in NR8383; assay type: cell-based, rat; details: NH4Cl 20 mM, monensin 5 μM, nigericin 10 μM with 200 nM LTR
[2] = Physicochemical properties, experimental literature values (Table I); details: classification in Table I
[3] = system: NR8383 cells; experiment: Drug uptake in NR8383 at 37 and 4°C (CLuptake, CLdiff, Kp); details: NR8383, 5 μM; CLdiff relative to CLuptake
Description: (§1) The studies were carried out in a 24-well plate format and the in vitro conditions were optimised in terms of cell detachment method from culture flasks, coating type of 24-well plates, seeding density, culturing time and drug incubation time points. Briefly, for cell detachment, gentle scraping versus Mg^2+-Ca^2+ free DPBS treatment of cells in culture flasks were tested. Considering the semi-adherent nature of AMs, cell seeding into non-coated, collagen-I and poly-D-lysine coated 24-well plates was investigated for cell attachment, distribution in the wells and detachment following DPBS washes during the uptake experiments. In addition, seeding densities of 0.36 and 0.72 × 10^6 cells per well were assessed with respect to cell attachment, confluency following culture (plating efficiency) and potential cell detachment following DPBS washes. Culturing time ranging from 4 to 24 h was investigated for optimal cell attachment before carrying out uptake experiments. Uptake rate and Kp data were normalised by cell number determined indirectly by measuring the amount of protein in samples by bicinchoninic acid (BCA) protein assay (Thermo Scientific, Loughborough, UK). Following the optimisation, detachment of NR8383 from cell culture flasks was performed by gentle scraping prior to cell counting and seeding into collagen-I coated 24-well plates at 0.5 × 10^6 cells per well. Cells were cultured for 16 h at 37°C, 5% CO2 (CO2 incubator, MCO-17AIC, Sanyo Biomedical, Loughborough, UK) before uptake studies performed over 1 to 10 min period.
(§2) The drug uptake in NR8383 corresponding to these conditions was described by total uptake (CLuptake) and passive diffusion (CLdiff) clearance terms, respectively. […] Substrate solutions were prepared by dilution of the stock solutions in DPBS resulting in final DMSO content < 1%. Uptake studies were performed in the presence of 1 mM ABT, a nonspecific P450 inhibitor, in order to avoid any potential impact of phase I metabolism. […] Following microscopy, the CGM was removed, cells were washed twice with 800 μL of either pre-warmed or ice-cold DPBS (for experiments at 37 and 4°C, respectively) and pre-incubation with 500 μL of pre-warmed or ice-cold ABT/DPBS was carried out for 20 min. Where ABT pre-treatment was not necessary, cell monolayers were treated with 500 μL of DPBS only. Once pre-incubation buffer was removed from the cell monolayers, incubations were started by addition of 400 μL of substrate solution (pre-warmed or ice-cold) in each well. Each substrate was incubated with the cells for 1, 2, 5 and 10 min and each time point at 37°C and 4°C. For 37°C experiments, incubation was carried out on a dry heater block maintained at 37°C throughout the experiment (Tecam Dri-block DB-3, Tecam, Princeton, NJ) and for 4°C experiments, the procedure was carried out on ice. Incubation with substrate was stopped by removal of the media with drug solution and washing the monolayers three times with 800 μL ice-cold DPBS. The back-diffusion of the drug from the cell into the medium was considered to be negligible under these conditions. The removed incubation media were retained for the measurement of drug medium concentrations and subsequent determination of Kp for each drug. The cells were lysed by addition of 200 μL ice-cold deionised water; cell lysates were kept at −20°C overnight and then processed further for LC-MS/MS analysis. Experiments were performed on three or more separate occasions for each drug investigated. […] The amount of protein per well was measured using a BSA calibration curve and absorbances read at 562 nm (S22 Boeco UV-Visible Spectrophotometer, Hamburg, Germany).

[4] = as above; details: rat
Description: as §1, §2

[5] = system: NR8383 cells; experiment: Lysosomal sequestration studies in NR8383 with NH4Cl, monensin and nigericin; details: for % Reduction in Kp by NH4Cl: NH4Cl 20 mM; for reduction in Kp in the presence of chemical agents (summary in Discussion): NR8383, NH4Cl, monensin, nigericin
Description: (§3) The extent of accumulation of drugs in lysosomes was assessed using the same uptake methodology, as described above in the absence and presence of NH4Cl and ionophores, monensin and nigericin. […] In addition, a range of incubation conditions was explored, including pre-incubation and co-incubation alone and combined together. Once the conditions were optimised, further experiments were performed with 20 mM NH4Cl co-incubated with investigated drugs. […] For incubations with monensin and nigericin, all drugs were prepared at 5 μM concentration and the incubations were carried out for 5 min (single time point). Following the treatment of the cell monolayers with drug alone or drug with the agents mentioned, incubations were stopped by washing of the cells with ice-cold DPBS as described above, followed by cell lysis in deionised water. All incubations were carried out in duplicate and experiments were performed for three separate occasions. The removed incubation media were retained for the measurement of drug concentrations and subsequent determination of Kp for each compound. Analysis of samples in LC-MS/MS was performed after cells were kept at −20°C overnight.
(§4) Kp and CLuptake were determined as described above for each drug both under control condition and in the presence of a chemical agent affecting the pH gradient between cytosol and lysosomes. The reduction in Kp and CLuptake of each drug in the presence of the chemical agents was expressed as a percentage relative to control and used as an indicator of the extent of lysosomal sequestration. A 50% reduction in both parameters was set as a cut-off for lysosomal accumulation, while also taking into account the physicochemical properties of the compounds (Table I) and the uncertainty associated with the experimental data.
(§5) The in vitro parameters were calculated on at least three separate occasions and the mean data were reported. When assessing the extent of lysosomal sequestration, the control and chemical agent treated cells were compared using the two-tailed, paired t-test in order to determine statistically significant difference between the two conditions. Values were reported as significant when p < 0.05.

[6] = as above; details: rat; for Kp at 10 min, 5 μM: NR8383, 5 μM drug; for Kp at 10 min, 20 µM: NR8383, 20 µM drug
Description: as §3, §4, §5

[7] = experimental value; ref ([21])-([30]) per drug, Table I; cited from earlier work
[8] = system: Lung tissue slices from male Wistar rats; design: method as in ref (8) (a number printed in a supplementary file, which may have a reference list of its own: not looked up in the article's list); details: drug 5 µM, 60 min, ref (8), cited from earlier work; for Reduction in total uptake (%): NH4Cl 20 mM
[9] = system: Brain slices from male Wistar rats; design: method as in ref (10) (a number printed in a supplementary file, which may have a reference list of its own: not looked up in the article's list); details: drug 5 µM, 60 min, ref (10), cited from earlier work
[10] = system: Liver tissue slices from male Wistar rats; design: method as in ref (8) (a number printed in a supplementary file, which may have a reference list of its own: not looked up in the article's list); details: drug 5 µM, 60 min, ref (8), cited from earlier work
[11] = system: Liver tissue slices from male Wistar rats; design: method as in ref (5) (a number printed in a supplementary file, which may have a reference list of its own: not looked up in the article's list); details: NH4Cl 20 mM, drug 5 µM, 60 min, ref (5); cited from earlier work
[12] = system: Lung tissue slices from male Wistar rats; design: method as in ref (14) (a number printed in a supplementary file, which may have a reference list of its own: not looked up in the article's list); details: monensin 10 µM, drug 5 µM, 60 min, ref (14); cited from earlier work
[13] = system: Liver tissue slices from male Wistar rats; design: method as in ref (14) (a number printed in a supplementary file, which may have a reference list of its own: not looked up in the article's list); details: monensin 10 µM, drug 5 µM, 60 min, ref (14); cited from earlier work
[14] = system: Lung tissue slices from male Wistar rats; design: method as in ref (5) (a number printed in a supplementary file, which may have a reference list of its own: not looked up in the article's list); details: NH4Cl 20 mM, drug 5 µM, 60 min, ref (5); cited from earlier work
[15] = system: Lung granule fraction containing lysosomes from male Wistar rats; design: method as in ref (6) (a number printed in a supplementary file, which may have a reference list of its own: not looked up in the article's list); details: NH4Cl 10 mM, drug 1 µM, 10 min; ref (6); cited from earlier work
[16] = system: Lung tissue slices from male Wistar rats; design: method as in ref (9) (a number printed in a supplementary file, which may have a reference list of its own: not looked up in the article's list); details: NH4Cl 20 mM, drug 5 µM, 60 min, ref (9); cited from earlier work
[17] = NR8383 cells, Kp Control, control

CO[C@@H]1C[C@@H](C[C@H]2CC[C@H](C)[C@H]([C@@H](C)C(=O)O)O2)O[C@]2(O[C@](C)([C@H]3CC[C@@](C)([C@@H]4O[C@@H]([C@H]5O[C@@](O)(CO)[C@H](C)C[C@@H]5C)C[C@@H]4C)O3)C[C@H]2C)[C@@H]1C [nigericin, nigericin sodium salt]
reduced LTR fluorescent signal [1]: up to 85%

CC[C@@]1([C@@H]2O[C@@H]([C@H]3O[C@@](O)(CO)[C@H](C)C[C@@H]3C)C[C@@H]2C)CC[C@H]([C@]2(C)CC[C@]3(C[C@H](O)[C@@H](C)[C@@H]([C@@H](C)[C@@H](OC)[C@H](C)C(=O)O)O3)O2)O1 [monensin, monensin sodium salt]
reduced LTR fluorescent signal [1]: up to 85%

C[N+]1(C)[C@@H]2C[C@@H](OC(=O)C(O)(c3cccs3)c3cccs3)C[C@H]1[C@@H]1O[C@@H]12 [Tiotropium bromide]
Acid–base Property [2]: Permanently cationic | Contribution of passive (%) [3]: 16.3% | Kp at 10 min, 5 μM ([4]; NR8383 cells, Kp (cell-to-medium concentration ratio), NR8383, 5 μM, 37°C, 10 min): 8.74 ± 7.24 | % Reduction in Kp by NH4Cl ([5]; NR8383, 5 μM drug): 12 ± 1.8% | % Reduction in Kp by NH4Cl ([5]; NR8383, 20 µM drug): 35 ± 26% | % Reduction in CLuptake by NH4Cl (20 mM) ([5]; NR8383, at 5 µM drug): 15 ^a % | % Reduction in CLuptake by NH4Cl (20 mM) ([5]; NR8383, at 20 µM drug): 28 ^a % | reduction in Kp in the presence of chemical agents (summary in Discussion) [5]: < 15% | Kp at 10 min, 5 μM ([6]; NR8383 cells, Kp + NH4Cl, 20 mM NH4Cl co-incubated, 10 min): 3.87 ± 2.61 | Kp at 10 min, 20 µM ([6]; NR8383 cells, Kp + NH4Cl, 20 mM NH4Cl): 2 ± 0.64 | Kp at 10 min, 5 μM [6, 17]: 4.39 ± 2.9 | Kp at 10 min, 20 µM [6, 17]: 2.4 ± 1

CC(Cc1ccc(O)cc1)NCC(O)c1cc(O)cc(O)c1 (stereo not drawn) [Fenoterol]
Acid–base Property [2]: Base | LogD7.4 [7]: 0.74 | Contribution of passive (%) [3]: 8.03% | Kp at 10 min, 5 μM [4]: 5.69 ± 0.98 | hepatocyte CLint at 5 μM ([4]; other cell line): < 1 µL/min/1e6 cells | % Reduction in Kp by NH4Cl ([5]; NR8383, 5 μM drug): 31 ± 23% | % Reduction in Kp by Monensin ([5]; NR8383, 5 μM drug, monensin 5 μM, 5 min): 27 ± 25% | % Reduction in Kp by Nigericin ([5]; NR8383, 5 μM drug, nigericin 10 μM, 5 min): 30 ± 12% | % Reduction in Kp by NH4Cl ([5]; NR8383, 20 µM drug): 27 ± 24% | % Reduction in CLuptake by Monensin (5 µM) ([5]; NR8383, at 5 µM drug): 29 ± 21% | % Reduction in CLuptake by NH4Cl (20 mM) ([5]; NR8383, at 5 µM drug): 36 ± 12% | % Reduction in CLuptake by Nigericin (10 µM) ([5]; NR8383, at 5 µM drug): 25 ± 15% | % Reduction in CLuptake by NH4Cl (20 mM) ([5]; NR8383, at 20 µM drug): 22 ± 28% | reduction in Kp in the presence of chemical agents (summary in Discussion) [5]: 20–40% | Kp at 10 min, 5 μM ([6]; Kp + NH4Cl, 20 mM NH4Cl co-incubated, 10 min): 2.91 ± 2.11 | Kp at 10 min, 20 µM ([6]; Kp + NH4Cl, 20 mM NH4Cl): 0.96 ± 0.33 | Kp at 10 min, 5 μM ([6]; Kp Control, control): 4.25 ± 2.64 | Kp at 10 min, 20 µM ([6]; Kp Control, control): 1.5 ± 0.93

Cl.N [NH4Cl, ammonium chloride]
reduced LTR fluorescent signal [1]: up to 85%

CSc1ccc2c(c1)N(CCC1CCCCN1C)c1ccccc1S2 (stereo not drawn) [Thioridazine]
Reduction in total uptake (%) [8]: 41% | Reduction of total uptake (%) ([8]; monensin 10 µM): 35% | Reduction in total uptake (%) ([9]; NH4Cl 20 mM): 62% | Reduction of total uptake (%) ([9]; monensin 10 µM): 58% | Reduction in total uptake (%) ([10]; NH4Cl 20 mM): 75% | Reduction of total uptake (%) ([10]; monensin 10 µM): 82%

NC(=O)N1c2ccccc2C=Cc2ccccc21 [Carbamazepine]
Reduction in total uptake (%) [11]: 16.1% | Reduction of total uptake (%) [12]: 5.4% | Reduction of total uptake (%) [13]: 0% | Reduction in total uptake (%) [14]: 5.4%

CN(C)CCCN1c2ccccc2Sc2ccc(Cl)cc21 [Chlorpromazine]
Reduction in total uptake (%) [15]: 8%

CNCCC(Oc1ccc(C(F)(F)F)cc1)c1ccccc1 (stereo not drawn) [Fluoxetine]
Reduction of total uptake (%) [12]: 23% | Reduction in total uptake (%) [8]: 41% | Reduction in total uptake (%) [14]: 21% | Reduction in total uptake (%) [16]: 39%
